Reference: PMC12078400, “Terminal spin labeling of xylotriose strongly affects interactions in the active site of xylanase BcX” (Journal of Biomolecular Nmr, 2025)
pKd: −log10 of the molar value. Read-outs that look alike come from different tables or passages of the source.

Assays:
[1] = target: T1, BcX E78Q-Y69A (Niallia circulans, UniProt P09850, E106Q/Y97A); assay: NMR titration (1H-15N HSQC) of 15N-labeled BcX E78Q-Y69A with ligand; format: binding, Bacillus circulans
T1 construct: made in house
Description: (§1) Solutions of ^15N-labeled BcX E78Q and BcX E78Q-Y69A (100 µM) were titrated with Dia-X3 and Para-X3. Concentrations of up to 50 mM for Dia-X3 and 8 mM for Para-X3 were used. Samples were prepared separately, and each contained 25 mM sodium acetate buffer (pH 5.8) and 10% D2O for lock. ^1H − ^15N HSQC spectra were obtained on a Bruker HD Avance 850 MHz spectrometer with a cryoprobe, at 20 °C, using 3 mm tubes. In one experiment Para-X3 was reduced in the NMR tube with ascorbic acid to study the effect of reduction in a single sample. The assignment, processing, and analysis of the HSQC spectra were conducted as detailed before (Saberi et al. [2024]).
(§2) Spectra were processed with Topspin (Bruker) and analyzed using CCPN Analysis v.2.4.2 (Vranken et al. [2005]). The weighted average chemical shift perturbations (CSP) for backbone amides (Δδavg) was calculated according to Eq. 1 (modified after Williamson [2013]):1 Δδavg=δH^2+δN/25^2 where δH and δN are the CSPs for ^1H and ^15N nuclei. Titration data were fitted to a 1:1 model Eq. (2), which simplifies to (3) when the ligand concentration [Lt] is much higher than the protein concentration [Pt] (Arai et al. [2012]; Wang et al. [1996]; Williamson [2013]):2 Δδobs=ΔδmaxKD+[Pt]+[Lt]-KD+[Pt]+[Lt]^2-4[Pt][Lt]/2[Pt] 3 Δδobs=[Lt]/KD+[Lt]Δδmax where Δδobs and Δδmax are the observed and maximal change in the chemical shift and KD is the dissociation constant. The error in KD was estimated by manually adjusting KD to higher and lower values and observing the range over which the fit of the CSP data to the model remained within the peak picking error bars of the CSPs.
(§3) The fractional populations of the free and bound states were calculated using the peak height (I) as follows:4 ffree=Ifree/Ifree+Ibound,fbound=Ibound/Ifree+Ibound
(§4) Here, ffree and fbound represent the fractions of the protein in the free and bound states. The uncertainties in the peak heights represent the noise level in the spectra. The dissociation constant KD was determined using:5 KD=ffree.Lfree/fbound
(§5) In this equation, [Lfree] represents the concentration of the free ligand, which was approximated as the total ligand concentration [Ltotal] because the ligand was in large excess relative to the protein. The mean KD value was determined by averaging KD values across the used residues.

[2] = target: T2, BcX E78Q (Niallia circulans, UniProt P09850, E106Q); assay: NMR titration (1H-15N HSQC) of 15N-labeled BcX E78Q with ligand; format: binding, Bacillus circulans
T2 construct: made in house
Description: as §1, §2, §3, §4, §5

[3] = target: T1, BcX E78Q-Y69A; settings: ref Saberi et al. [2024], cited from earlier work
[4] = target: T2, BcX E78Q; settings: ref Saberi et al. [2024], cited from earlier work
[5] = α-helix region, Para-X3 vs Dia-X3
[6] = α-helix region, global fit of CSP, pH 5.8, 20 °C, read-out: Dissociation constant KD, helix
[7] = secondary binding site, read-out: Dissociation constant KD, SBS

| Structure (SMILES) | CSPs or PRE for amides in the inner palm region (active site) ([1]; 8 mM ligand) | pKd ([1]; active site, fit of CSP curves (fast exchange), NB = no binding, read-out: Dissociation constant KD, active site) | Affinity for helix region, fold higher than for the diamagnetic equivalent (Dia-X3) [1, 5] [fold] | pKd [1, 6] | pKd ([2]; active site, CSP of amides, up to 8 mM ligand, NB = no binding, read-out: Dissociation constant KD, active site) | Binding in the active site cavity (CSP or intensity loss of amide resonances) ([2]; inside active site cleft, up to 8 mM ligand) | Affinity for helix region, fold higher than for the diamagnetic equivalent (Dia-X3) [2, 5] [fold] | pKd [2, 6] | pKd ([3]; active site, aglycon subsites, 2:1 model, read-out: Dissociation constant KD2, active site) | pKd ([3]; active site, glycon subsites, 2:1 model, read-out: Dissociation constant KD1, active site) | pKd [3, 7] | pKd ([4]; active site, read-out: Dissociation constant KD, active site) | pKd [4, 7] |
| --- | --- | --- | --- | --- | --- | --- | --- | --- | --- | --- | --- | --- | --- |
| CC1(C)CC(O[C@@H]2OC[C@@H](O[C@@H]3OC[C@@H](O[C@@H]4OC[C@@H](O)[C@H](O)[C@H]4O)[C@H](O)[C@H]3O)[C@H](O)[C@H]2O)CC(C)(C)N1[O] [Para-X3, β-D-xylopyranosyl-(1 → 4)-β-D-xylopyranosyl-(1 → 4)-1-TEMPOL-β-D-xylopyranoside] | No significant CSPs or PRE | < 2.10 | 1.4 | 2.62 | < 2.10 | absent or very weak | 2.7 | 2.80 | – | – | – | – | – |
| OC1OC[C@@H](O[C@@H]2OC[C@@H](O[C@@H]3OC[C@@H](O)[C@H](O)[C@H]3O)[C@H](O)[C@H]2O)[C@H](O)[C@H]1O (some centres unmarked) [X3, xylotriose] | – | – | – | – | – | – | – | – | 1.62 | 1.82 | 1.66 | 2.24 | 1.64 |
| OC1OC[C@@H](O[C@@H]2OC[C@@H](O[C@@H]3OC[C@@H](O[C@@H]4OC[C@@H](O)[C@H](O)[C@H]4O)[C@H](O)[C@H]3O)[C@H](O)[C@H]2O)[C@H](O)[C@H]1O (some centres unmarked) [X4] | – | – | – | – | – | – | – | – | – | – | – | – | 2.64 |
